Results as given in patent US6455559B1, “Phenylacetamido-pyrazole derivatives, process for their preparation and their use as antitumor agents” (Pharmacia Italia S.p.A., priority 2001, dated 2002).

Biological target: cdk2/Cyclin A (Homo sapiens, UniProt P24941)
Test: inhibition assay of cdk2/Cyclin A activity (MultiScreen-PH phosphocellulose filter plate, histone H1, P33γ-ATP)
Format: biochemical
Settings: tested against cdk2/A; read-out: inhibitory activity, expressed as IC50
Method: The inhibiting activity of putative cdk/cyclin inhibitors and the potency of selected compounds was determined through a method of assay based on the use of the MultiScreen-PH 96 well plate (Millipore), in which phosphocellulose filter paper was placed at each well bottom allowing binding of positive charged substrate after a washing/filtration step.
When a radioactivity labelled phosphate moiety was transferred by the ser/threo kinase to the filter-bound histone, light emitted was measured in a scintillation counter.
The inhibition assay of cdk2/Cyclin A activity was performed according to the following protocol.
Kinase reaction: 1.5 μM histone H1 substrate, 25 μM ATP (0.5 uCi P33γ-ATP), 100 ng Cyclin A/cdk2 complex, 10 μM inhibitor in a final volume of 100 μl buffer (TRIS HCl 10 mM pH 7.5, MgCl2 10 mM, 7.5 mM DTT) were added to each well of a 96 U bottom well plate. After 10 minutes at 37° C. incubation, reaction was stopped by 20 μl EDTA 120 mM.
Capture: 100 μl were transferred from each well MultiScreen plate, to allow substrate binding phosphocellulose filter. […]
Detection: filters were allowed to dry at 37° C., then 100 μl/well scintillant were added and 33P labelled histone H1 was detected by radioactivity counting in the Top-Count instrument.
Results: data were analysed and expressed as % inhibition referred to total activity of enzyme (=100%).

Question: `C[C@H](C(=O)Nc1cc(C2CC2)[nH]n1)c1ccc(N2CCOC2=O)cc1` [(2S)-N-(5-cyclopropyl-1H-pyrazol-3-yl)-2-[4-(2-oxo-1,3-oxazolidin-3-yl)phenyl]propanamide] was tested. Which IC50 did it give?
Answer: Its IC50 is 8 nM.
